# In US11672788B2, “Histone deacetylase inhibitors for immunomodulation in tumor microenvironment” (GREAT NOVEL THERAPEUTICS BIOTECH & MEDICALS CORPORATION, priority 2020, dated 2023):
# Assays:
# [1] = target: T1, HDAC3 (Homo sapiens (Human), UniProt O15379); assay: HDAC3 enzymatic kinetic assay; format: biochemical; conditions: 2 μM; 20 min, 40 min and 60 min
# Method: HDAC3 enzymatic kinetic assay was performed according to standard Protocols (Fluorgenic HDAC3 assay kit, BPS Bioscience™). […] After incubation, assay developer was added to the samples and the absorbance was read at fluorogenic wavelength. The relative inhibition to HDAC3 activity in each sample was determined.
# [2] = Saturation solubility; format: physicochemical; conditions: ddH2O, 25° C., mean ± SD, BDL: Below detection limit
# Method: Samples of 5 mg of compounds were added to 5 ml volumetric flasks containing ddH2O and shaken at 100 rpm in an incubator at 25° C. for 90 minutes. The resulting suspension was filtered through a 0.22 μm filter. The concentrations of compounds were determined spectrophotometrically at 256 nm. The saturation solubility of each sample was determined in triplicates and the mean value and standard deviation were reported.
# [3] = target: HDAC1 (Homo sapiens (Human), UniProt Q13547); assay: HDACs 1, 2, and 3 enzymatic inhibition (fluorogenic kit, 1 h); format: biochemical; conditions: 37° C.
# HDAC1, sequence (Q13547 whole entry): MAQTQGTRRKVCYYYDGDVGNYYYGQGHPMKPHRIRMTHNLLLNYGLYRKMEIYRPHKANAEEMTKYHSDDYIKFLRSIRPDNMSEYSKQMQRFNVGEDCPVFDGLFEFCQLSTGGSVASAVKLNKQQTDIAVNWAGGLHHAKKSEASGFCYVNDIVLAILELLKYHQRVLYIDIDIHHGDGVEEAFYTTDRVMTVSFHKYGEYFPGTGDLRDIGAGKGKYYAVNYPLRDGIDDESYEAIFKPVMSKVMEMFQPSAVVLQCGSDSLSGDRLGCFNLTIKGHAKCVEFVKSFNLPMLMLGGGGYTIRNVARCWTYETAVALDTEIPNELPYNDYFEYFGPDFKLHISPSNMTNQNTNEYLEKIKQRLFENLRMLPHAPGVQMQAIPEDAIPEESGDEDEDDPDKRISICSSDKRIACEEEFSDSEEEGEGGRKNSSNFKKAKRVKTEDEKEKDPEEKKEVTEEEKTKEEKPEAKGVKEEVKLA
# Method: (§1) HDACs assay was performed according to standard Protocols (Fluorgenic HDACs 1, 2, and 3 assay kit, BPS Bioscience™). […] After 1 h, assay developer was added to the samples and the absorbance was read at fluorogenic wavelength. The relative inhibition to HDACs 1, 2, and 3 activities in each sample was determined.
# [4] = target: T1, HDAC3; assay: as above; format: biochemical; conditions: 37° C.
# Method: as §1
# [5] = target: HDAC2 (Homo sapiens (Human), UniProt Q92769); assay: as above; format: biochemical; conditions: 37° C.
# HDAC2, sequence (Q92769 whole entry): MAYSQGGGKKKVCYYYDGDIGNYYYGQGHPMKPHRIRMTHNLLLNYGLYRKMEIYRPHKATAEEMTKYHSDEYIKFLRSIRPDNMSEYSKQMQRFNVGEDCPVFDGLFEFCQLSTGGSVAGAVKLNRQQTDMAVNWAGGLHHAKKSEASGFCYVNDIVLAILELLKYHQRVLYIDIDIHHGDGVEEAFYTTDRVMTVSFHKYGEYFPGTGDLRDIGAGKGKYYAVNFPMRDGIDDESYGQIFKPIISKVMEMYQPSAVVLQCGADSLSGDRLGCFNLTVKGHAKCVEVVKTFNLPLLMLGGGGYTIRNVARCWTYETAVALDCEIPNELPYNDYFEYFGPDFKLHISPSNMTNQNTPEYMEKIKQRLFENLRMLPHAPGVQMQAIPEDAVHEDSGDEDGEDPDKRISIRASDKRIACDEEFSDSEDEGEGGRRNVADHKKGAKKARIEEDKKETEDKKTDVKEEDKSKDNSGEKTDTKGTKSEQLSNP
# Method: as §1
# [6] = tested on: MDA-MB-231; assay: In vitro cytotoxicity MTT assay; format: cell-based, human; conditions: Homo sapiens, MDA-MB-231, 72 h, IC50 ± SD
# Method: (§2) Six different cell lines were used, including human breast cancer cell line MDA-MB-231 (6×10^3), MDA-MB-453 (2.4×10^4), SK-BR-3 (6×10^3), human breast epithelial cell line M10 (6×10^3), human gastric carcinoma NCI-N87 (2.4×10^4), and human colorectal adenocarcinoma SW48 (2.4×10^4), and seeded in a 96 well plate. Cell lines were obtained from Bioresource Collection and Research Center, BCRC, Taiwan. […] After 72 h, MTT assay (Cayman™) was used to determine the cellular viability.
# [7] = tested on: M10; assay: In vitro cytotoxicity MTT assay; format: cell-based, human; conditions: Homo sapiens, M10, 72 h, IC50 ± SD
# Method: as §2
# [8] = tested on: SW48; assay: In vitro cytotoxicity MTT assay; format: cell-based, human; conditions: Homo sapiens, SW48, 72 h, IC50 ± SD
# Method: as §2
# [9] = tested on: MDA-MB-453; assay: In vitro cytotoxicity MTT assay; format: cell-based, human; conditions: Homo sapiens, MDA-MB-453, 72 h, IC50 ± SD
# Method: as §2
# [10] = tested on: SK-BR-3; assay: In vitro cytotoxicity MTT assay; format: cell-based; conditions: Homo sapiens, 72 h, IC50 ± SD
# Method: as §2
# [11] = tested on: SW48 cells; assay: Cell cycle arrest by PI flow cytometry; format: cell-based, human; conditions: for Percentage of Cell Cycle Distribution G0/G1 / Percentage of Cell Cycle Distribution G2/M / Percentage of Cell Cycle Distribution S: 72 h; for Cell cycle arrest: SW48, doses of Table 12
# Method: (§3) A PI/RNase staining assay (BD Bioscience™) was performed to reveal the presence of cell cycle arrest and apoptotic cells after treatment with GNTbm compounds, Chidamide and Entinostat. […] After treatment cells were harvested, fixed with 80% ethanol for 24 h, washed with 1×PBS and stained with PI/RNase for 15 min at room temperature. The cells were then analyzed using Flow Cytometer within 1 h.
# [12] = tested on: SW48 cells; assay: Cell apoptosis (sub-G1) by PI flow cytometry; format: cell-based, human; conditions: 72 h; for Induction of apoptosis: SW48, indicated doses (Table 13)
# Method: as §3
# [13] = tested on: histone H3 acetylation (AcH3) in SW48 cells; assay: Western blot of histone H3 acetylation; format: cell-based, human; conditions: SW48, 24 h, FIG. 12c
# Method: Human breast cancer MDA-MB-231 cells and human colorectal adenocarcinoma SW48 cells were analyzed. MDA-MB-231 and SW48 were obtained from Bioresource Collection and Research Center (BCRC, Taiwan). MDA-MB-231 and SW48 were grown at 37° C. under humidified air supplemented without CO2 in Leibovitz's L-15 (cat. #11415114, Thermo Fisher Scientific) containing 10% heat inactivated fetal calf serum (Thermo Scientific), 1× concentration of MycoZap antibiotics (cat. #VZA-2011, Lonza). Cells were treated with GNTbm compounds series, Chidamide or Entinostat for different time periods or at varied doses. Cells were treated with indicated doses for 24 h or cells were treated with indicated doses for different time periods. Cell pellets were dissolved with RIPA buffer (cat. #20-188, Merck) with protease and phosphatase inhibitors (cat. #K272, BioVision) and clarified by centrifugation. Equal amounts of total protein were resolved by SDS-PAGE and transferred to polyvinylidene fluoride membranes (cat. #1620177, BIO-RAD). Blots were incubated with primary antibodies against β-actin (cat. #sc-47778, Santa Cruz Biotechnology), Histone 3ac (cat. #61637, Active Motif), and HRP secondary antibodies anti-rabbit (ab6721, Abcam) and anti-mouse (sc-2005, Santa Cruz). Blots were developed using the ECL Western Blotting Substrate (cat. #sc-2048, Santa Cruz Biotechnology) Image blots were analyzed with the iBright FL1000 (Thermo Fisher Scientific) imaging systems.
# [14] = tested on: NCI-N87; assay: In vitro cytotoxicity MTT assay; format: cell-based; conditions: Homo sapiens, 72 h, IC50 ± SD
# Method: as §2
# T1 sequence (O15379 whole entry): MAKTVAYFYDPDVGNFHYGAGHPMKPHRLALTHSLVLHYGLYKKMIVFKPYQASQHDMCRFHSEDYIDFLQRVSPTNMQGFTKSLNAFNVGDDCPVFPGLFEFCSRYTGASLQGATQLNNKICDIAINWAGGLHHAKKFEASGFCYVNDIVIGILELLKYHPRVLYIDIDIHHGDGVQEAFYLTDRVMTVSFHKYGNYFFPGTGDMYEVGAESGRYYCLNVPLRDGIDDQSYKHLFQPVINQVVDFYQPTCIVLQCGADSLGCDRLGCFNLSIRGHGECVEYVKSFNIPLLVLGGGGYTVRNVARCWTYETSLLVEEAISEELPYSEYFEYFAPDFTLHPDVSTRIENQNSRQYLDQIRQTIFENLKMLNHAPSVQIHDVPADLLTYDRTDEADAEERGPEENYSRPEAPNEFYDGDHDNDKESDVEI
# T1 sequence (Q9Y618 395-489 partner): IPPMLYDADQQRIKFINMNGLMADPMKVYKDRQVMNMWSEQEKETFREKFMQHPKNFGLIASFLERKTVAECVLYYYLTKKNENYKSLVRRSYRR
SMILES,IC50 [3],IC50 [4],IC50 [5],IC50 [6],IC50 [7],IC50 [8],IC50 [9],"Percentage of Cell Cycle Distribution G0/G1 ([11]; SW48, 0.125 μM)","Percentage of Cell Cycle Distribution G2/M ([11]; SW48, 0.125 μM)","Percentage of Cell Cycle Distribution S ([11]; SW48, 0.125 μM)","Percentage of Cell Cycle Distribution G0/G1 ([11]; SW48, 0.5 μM)","Percentage of Cell Cycle Distribution G2/M ([11]; SW48, 0.5 μM)","Percentage of Cell Cycle Distribution S ([11]; SW48, 0.5 μM)","Percentage of Cell Cycle Distribution G0/G1 ([11]; SW48, 1 μM)","Percentage of Cell Cycle Distribution G2/M ([11]; SW48, 1 μM)","Percentage of Cell Cycle Distribution S ([11]; SW48, 1 μM)","Percentage of Cell Cycle Distribution G0/G1 ([11]; SW48, 2 μM)","Percentage of Cell Cycle Distribution G2/M ([11]; SW48, 2 μM)","Percentage of Cell Cycle Distribution S ([11]; SW48, 2 μM)",Cell cycle arrest [11],further results
"Cc1ccc(/C=C/CC(=O)Nc2ccc(C(=O)Nc3ccc(F)cc3N)cc2)cn1 [GNTbm-03, 4-((E)-4-(6-methylpyridin-3-yl)but-3-enamido)-N-(2-amino-4-fluorophenyl)benzamide]",560 ± 40 nM,670 ± 60 nM,510 ± 50 nM,26700 ± 5800 nM,6100 ± 134 nM,5260 ± 900 nM,1810 ± 8 nM,–,–,–,–,–,–,–,–,–,–,–,–,–,Inhibition of HDAC 3 enzyme activities (kinetics) [1]: stronger inhibition of HDAC 3 enzyme activities than GNTbm-01; Saturation Solubility ([2]; 90 minutes): BDL; IC50 [10]: 4070 ± 680 nM
"Nc1cc(F)ccc1NC(=O)c1ccc(NC(=O)C/C=C/c2cccnc2)cn1 [GNTbm-04, 5-((E)-4-(pyridin-3-yl)but-3-enamido)-N-(2-amino-4-fluorophenyl)pyridine-2-carboxamide]",380 ± 40 nM,200 ± 100 nM,540 ± 7 nM,1640 ± 4 nM,1810 ± 60 nM,600 ± 90 nM,1590 ± 3 nM,56.9%,25.2%,17.9%,63.2%,19.3%,17.5%,67.2%,18.9%,13.9%,70.5%,18.7%,10.8%,significant induced cell cycle arrest in G0/G1 phase in SW48 cells,"solubility at 90 min ([2]; water, thermodynamic from solid): 7.2 µg/mL; Percentages of Cell Apoptosis ([12]; SW48, 0.125 μM): 2.9%; Percentages of Cell Apoptosis ([12]; SW48, 0.5 μM): 10.8%; Percentages of Cell Apoptosis ([12]; SW48, 1 μM): 20.8%; Percentages of Cell Apoptosis ([12]; SW48, 2 μM): 32%; Induction of apoptosis [12]: potent in inducing apoptosis in SW48 cells; Histone 3 acetylation expression versus Chidamide [13]: more potent in inducing the histone 3 acetylation expression in SW48 cells than Chidamide; IC50 [14]: 340 ± 40 nM"
"Cc1ccc(/C=C/CC(=O)Nc2ccc(C(=O)Nc3ccc(F)cc3N)cn2)cn1 [GNTbm-01, 6-((E)-4-(6-methylpyridin-3-yl)but-3-enamido)-N-(2-amino-4-fluorophenyl)pyridine-3-carboxamide]",6770 ± 760 nM,2750 ± 130 nM,2680 ± 200 nM,49800 ± 4900 nM,24800 ± 1150 nM,> 50000 nM,20900 ± 4440 nM,–,–,–,–,–,–,–,–,–,–,–,–,–,IC50 [10]: 28500 ± 1850 nM
"Nc1ccccc1NC(=O)c1ccc(NC(=O)C/C=C/c2cccnc2)cn1 [GNTbm-05, 5-((E)-4-(pyridin-3-yl)but-3-enamido)-N-(2-aminophenyl)pyridine-2-carboxamide]",140 ± 2 nM,1 ± 0.04 nM,360 ± 20 nM,1660 ± 20 nM,430 ± 30 nM,1640 ± 20 nM,1580 ± 3 nM,61.5%,18.7%,19.8%,59.2%,22.2%,18.6%,55.4%,31.8%,12.8%,53.6%,34.6%,11.8%,significantly induced cell cycle arrest in the G2/M phase in SW48 cells,"Percentages of Cell Apoptosis ([12]; SW48, 0.125 μM): 9.0%; Percentages of Cell Apoptosis ([12]; SW48, 0.5 μM): 17.9%; Percentages of Cell Apoptosis ([12]; SW48, 1 μM): 27.2%; Percentages of Cell Apoptosis ([12]; SW48, 2 μM): 42.4%; Induction of apoptosis [12]: potent in inducing apoptosis in SW48 cells; Histone 3 acetylation expression versus Chidamide [13]: more potent in inducing the histone 3 acetylation expression in SW48 cells than Chidamide; IC50 [14]: 280 ± 10 nM"
"Nc1ccccc1NC(=O)c1ccc(NC(=O)C/C=C/c2cccnc2)cc1 [GNTbm-38, 4-((E)-4-(pyridin-3-yl)but-3-enamido)-N-(2-aminophenyl)benzamide]",690 ± 30 nM,1200 ± 10 nM,280 ± 10 nM,3550 ± 450 nM,1990 ± 60 nM,1640 ± 5 nM,1670 ± 10 nM,63.3%,17.4%,19.3%,61.8%,27.8%,10.4%,57.7%,29.8%,12.5%,53.9%,32.5%,13.6%,significantly induced cell cycle arrest in the G2/M phase in SW48 cells,"Percentages of Cell Apoptosis ([12]; SW48, 0.125 μM): 8.5%; Percentages of Cell Apoptosis ([12]; SW48, 0.5 μM): 18.3%; Percentages of Cell Apoptosis ([12]; SW48, 1 μM): 24.4%; Percentages of Cell Apoptosis ([12]; SW48, 2 μM): 37.3%; Induction of apoptosis [12]: potent in inducing apoptosis in SW48 cells; Histone 3 acetylation expression versus Chidamide [13]: more potent in inducing the histone 3 acetylation expression in SW48 cells than Chidamide; IC50 [14]: 420 ± 80 nM"
